In PMC9959130, “Effects of Side Chain and Peptide Bond Modifications on the Targeting Properties of Stabilized Minigastrin Analogs” (Pharmaceuticals, 2023):
Like-named read-outs stand apart in the source and are kept apart here. Where a SMILES comes first, the peptide text is derived from it. [ ]: non-standard residue; d: D form. The star is where a group is joined. DOTA = O=C(O)CN1CCN(CC(=O)O)CCN(CC(=O)*)CCN(CC(=O)O)CC1; NMeNle = CCCC[C@H](NC)C(=O)O

Key:
[1] = Metabolic studies in BALB/c mice (intact radiopeptide by radio-HPLC); format: in vivo; settings: i.v., 2 nmol, 10 min p.i., two animals per peptide; for Intact radiopeptide in kidney: kidney homogenate; for Intact radiopeptide in liver: liver homogenate
Experimental: All animal experiments were approved by the Austrian Ministry of Science (BMWF-66.011/0075- WF/V/3b/2016) and performed in accordance with the Austrian Animal Protection Act. Metabolic studies characterizing the stability of selected radioligands against enzymatic degradation were carried out in 7 to 8 week old female BALB/c mice (Charles River, Sulzfeld, Germany). The mice (two animals for each peptide) were intravenously injected into a lateral tail vein with 5–10 MBq of the ^111In-labeled peptide derivatives, corresponding to 2 nmol total peptide. At the time point of 10 min p.i. the animals were euthanatized by cervical dislocation. A sample of urine and blood was immediately collected. Liver and kidneys were dissected, mixed with 20 mM HEPES buffer pH 7.3 (1:1, w/v) and homogenized using an Ultra-Turrax T8 homogenizer (IKA-Werke, Staufen, Germany) for 1 min. All samples taken were analyzed by analytical HPLC using the low-sensitivity loop for urine and the high-sensitivity loop for blood, liver and kidney. Before injection into the HPLC system, all samples except urine were treated with ACN and diluted with water as described for stability studies in human serum. The percentage of intact radiopeptide in the analyzed samples was calculated by integration of the different peaks found in the radiochromatogram using Chromeleon Dionex Software (Version 7.2.9.11323).

[2] = In vitro stability in human serum (intact radiopeptide by radio-HPLC); format: in vitro ADME; settings: fresh human serum, 37 °C, n = 2
Experimental: In vitro stability studies were performed in human serum (n = 2). The radiolabeled peptides (1000 pmol/mL) were incubated at 37 °C and a sample of 100 μL was taken at 1, 4, and 24 h after incubation. After the precipitation of proteins with ACN at 1:1.5 (v/v), centrifugation (14,000 rpm, 2 min, centrifuge 5424, Eppendorf AG, Germany) and dilution with water at 1:1 (v/v), an aliquot of 100 μL of this solution was analyzed by HPLC. Radioligand breakdown was monitored and the percentage of intact radiopeptide was calculated using Chromeleon Dionex Software (Version 7.2.9.11323). Additionally, the radiolabeled peptides (1000 pmol/mL) were incubated in PBS (n = 1) at room temperature to confirm the complex stability as a control.

[3] = Biodistribution in BALB/c nude mice bearing A431-CCK2R/A431-mock xenografts; format: in vivo; settings: female, athymic BALB/c nude, mouse, iv, 20 pmol, total radioactivity, ~20 pmol, 4 h p.i. (indium-111 or lutetium-177), mean ± SD n = 4; for tissue to tissue ratio at 4 h: BALB/c nude mice; for tissue uptake at 4 h: xenografted BALB/c nude mice, i.v.
Experimental: The overall biodistribution and tumor targeting properties of selected radiolabeled peptides were evaluated in female athymic BALB/c nude mice (Charles River, Sulzfeld, Germany, age of 7 to 9 weeks). After tumor induction with 2 × 10^6 A431-CCK2R or A431-mock cells (subcutaneously injected in 200 μL DMEM into the right and left flank) and a waiting period of 10–14 days (sufficient to achieve tumors of ∼0.25 g), mice were randomly divided into groups of four and treated with a bolus injection of 150 µL of the injectable solution containing the radiolabeled peptide via a lateral tail vein to achieve an injected radioactivity of 150–200 kBq and a total injected peptide amount of ~20 pmol (n = 4 for each radiopeptide). For DOTA-[(N-Me)1Nal^8]MGS5, additional biodistribution studies were performed with gallium-68 (~0.5 MBq, 20 pmol) and lutetium-177 (~0.5 MBq, 20 pmol). The animals were euthanatized by cervical dislocation at 1 h (gallium-68) or 4 h p.i. (indium-111/ lutetium-177). The tumors and other tissues (blood, lung, heart, muscle, spleen, intestine, liver, kidney, stomach, and pancreas) were dissected, weighed, and the radioactivity measured in the γ-counter. The rest of the body and a standard of the solution injected was also measured together with the collected samples. The percentage of injected activity per gram of tissue (% IA/g) and the tumor-to-organ activity ratio of selected tissues were calculated for each mouse and time point studied. Origin software (Microcal Origin 6.1, Northampton, MA, USA) was used for statistical analysis (independent t-test for two populations; significance level p < 0.05).

[4] = Binding to serum proteins (incubation in human serum, Sephadex G-50 size exclusion chromatography); format: in vitro ADME; settings: 37 °C
Experimental: Protein binding was determined by incubation of the radiolabeled peptides in human serum at 37 °C (500 pmol/mL, n = 2). For the time points of 1, 4, and 24 h after incubation, samples of 25 µL were subjected to Sephadex G-50 size exclusion chromatography (GE Healthcare Illustra, Little Chalfont, UK). The column and the eluate were measured using the γ-counter and the percentage of protein binding was calculated.

For `CCCC[C@@H](C(=O)N[C@@H](CC(=O)O)C(=O)N[C@@H](Cc1cccc2ccccc12)C(=O)NC)N(C)C(=O)[C@H](Cc1c[nH]c2ccccc12)NC(=O)CNC(=O)[C@H](Cc1ccc(O)cc1)NC(=O)[C@H](C)NC(=O)[C@@H](CCC(=O)O)NC(=O)CN1CCN(CC(=O)O)CCN(CC(=O)O)CCN(CC(=O)O)CC1` [[^111In]In-DOTA-MGS5[NHCH3]] [metal not drawn], the “Intact radiopeptide in kidney” value [1] was 7.4 ± 8.6%, the “Intact radiopeptide in liver” value [1] was 78.1 ± 3.7% and the “Intact radiopeptide in blood” value [1] was 71.7 ± 6.2%. For the same compound, the “Intact radiopeptide in urine” value [1] was 1.3 ± 0.2%.

With `CCCC[C@@H](C(=O)N[C@@H](CC(=O)O)C(=O)N[C@@H](Cc1ccc2ccccc2c1)C(N)=O)N(C)C(=O)[C@H](Cc1c[nH]c2ccccc12)NC(=O)CNC(=O)[C@H](Cc1ccc(O)cc1)NC(=O)[C@H](C)NC(=O)[C@@H](CCC(=O)O)NC(=O)CN1CCN(CC(=O)O)CCN(CC(=O)O)CCN(CC(=O)O)CC1` [[^111In]In-DOTA-[2Nal^8]MGS5] [metal not drawn] the “Intact radiopeptide in kidney” value [1] was 24.7 ± 0.3%, the “Intact radiopeptide in liver” value [1] was 83.9 ± 0.1% and the “Intact radiopeptide in blood” value [1] was 88.4 ± 0.4%. The “Intact radiopeptide in urine” value [1] was 28.2 ± 1.0%.

Compound `CCCC[C@@H](C(=O)N[C@@H](CC(=O)O)C(=O)N(C)[C@@H](Cc1cccc2ccccc12)C(N)=O)N(C)C(=O)[C@H](Cc1c[nH]c2ccccc12)NC(=O)CNC(=O)[C@H](Cc1ccc(O)cc1)NC(=O)[C@H](C)NC(=O)[C@@H](CCC(=O)O)NC(=O)CN1CCN(CC(=O)O)CCN(CC(=O)O)CCN(CC(=O)O)CC1` [[^111In]In-DOTA-[(N-Me)1Nal^8]MGS5, metal not drawn] has a remaining at 4 h, 1000 pmol/mL ([2]; human, radiolabeled peptide, 4 h after incubation) of 99.3 ± 0.9%, a remaining at 24 h, 1000 pmol/mL ([2]; radiolabeled peptide (111In where no radiometal named), 24 h after incubation) of 99.6 ± 0.1% and a tissue to tissue ratio at 4 h ([3]; A431-CCK2R xenograft / blood, A431-CCK2R xenograft, read-out: tumor-to-organ ratio: blood) of 281 ± 88.5. It also gave a tissue to tissue ratio at 4 h ([3]; A431-CCK2R xenograft / kidney, A431-CCK2R xenograft, read-out: tumor-to-organ ratio: kidney) of 7.55 ± 0.48, a tissue to tissue ratio at 4 h ([3]; A431-CCK2R xenograft / stomach, A431-CCK2R xenograft, read-out: tumor-to-organ ratio: stomach) of 11.5 ± 1.82 and a tissue uptake at 4 h ([3]; A431-mock xenograft, read-out: Uptake in A431-mock xenograft) of 0.38 ± 0.08 %ID/g. For the same compound, the tissue uptake at 4 h ([3]; blood, read-out: Uptake in blood) was 0.19 ± 0.07 %ID/g, the tissue uptake at 4 h ([3]; heart, read-out: Uptake in heart) was 0.14 ± 0.03 %ID/g and the tissue uptake at 4 h ([3]; intestine, read-out: Uptake in intestine) was 0.81 ± 0.1 %ID/g. For the same compound, the tissue uptake at 4 h ([3]; kidneys, read-out: Uptake in kidneys) was 6.33 ± 0.89 %ID/g, the tissue uptake at 4 h ([3]; liver, read-out: Uptake in liver) was 1.39 ± 0.16 %ID/g and the tissue uptake at 4 h ([3]; lung, read-out: Uptake in lung) was 0.21 ± 0.07 %ID/g. It also gave a tissue uptake at 4 h ([3]; muscle, read-out: Uptake in muscle) of 0.12 ± 0.05 %ID/g and a tissue uptake at 4 h ([3]; spleen, read-out: Uptake in spleen) of 0.32 ± 0.05 %ID/g.

With `CCCC[C@@H](C(=O)N[C@@H](CC(=O)O)C(=O)N[C@@H](Cc1ccccc1)C(N)=O)N(C)C(=O)[C@H](Cc1c[nH]c2ccccc12)NC(=O)CNC(=O)[C@H](Cc1ccc(O)cc1)NC(=O)[C@H](C)NC(=O)[C@@H](CCC(=O)O)NC(=O)CN1CCN(CC(=O)O)CCN(CC(=O)O)CCN(CC(=O)O)CC1` [[^111In]In-DOTA-[Phe^8]MGS5] [metal not drawn] ({DOTA}-[dE]AYGW[NMeNle]DF-NH2) the “Binding to Serum Proteins (%)” value ([4]; radiolabeled peptide (111In where no radiometal named), 500 pmol/mL, 24 h after incubation, Sephadex G-50, γ-counter, n = 2) was 20%.

In the case of `CCCC[C@@H](C(=O)N[C@@H](CC(=O)O)C(=O)N(C)[C@@H](Cc1cccc2ccccc12)C(N)=O)N(C)C(=O)[C@H](Cc1c[nH]c2ccccc12)NC(=O)CNC(=O)[C@H](Cc1ccc(O)cc1)NC(=O)[C@H](C)NC(=O)[C@@H](CCC(=O)O)NC(=O)CN1CCN(CC(=O)O)CCN(CC(=O)O)CCN(CC(=O)O)CC1` [[^177Lu]Lu-DOTA-[(N-Me)1Nal^8]MGS5, metal not drawn], the fraction unbound at 4 h, 500 pmol/mL ([4]; human, radiolabeled peptide, 4 h after incubation, Sephadex G-50, n = 2) is reported as 0.746, the fraction unbound at 24 h, 500 pmol/mL ([4]; radiolabeled peptide (111In where no radiometal named), 24 h after incubation, Sephadex G-50, γ-counter, n = 2) is reported as 0.713 and the tissue uptake at 4 h ([3]; A431-CCK2R xenograft, read-out: Uptake in A431-CCK2R xenograft) is reported as 35.1 ± 6.32 %ID/g. For the same compound, the tissue uptake at 4 h ([3]; stomach, read-out: Uptake in stomach) was 2.37 ± 0.33 %ID/g.
